IC50 data for one molecule are collected here from patent publication EP1675855B1, “4-AMINO-QUINOLINE OUINOLIZIDINYL-AND QUINOLIZIDINYLALKYL-DERIVATIVES WITH ANTIMALARIAL ACTIVITY” (Need Pharmaceuticals S.r.l., priority 2003, dated 2005).

Experiment [1] has as its system chloroquine-resistant P. falciparum strains. Briefly: microbe, parasite or virus in culture. The conditions noted are these: Plasmodium falciparum. The protocol:
(§1) The compounds of the invention were tested in vitro on chloroquine-sensitive and chloroquine-resistant strains of P. falciparum. […] Parasites' growth was evaluated with a colorimetric assay for pLDH at 72 hours.

The subject of experiment [2] is chloroquine-sensitive P. falciparum strains. Briefly: microbe, parasite or virus in culture. The conditions noted are these: Plasmodium falciparum. On the procedure:
as §1

As usually defined, the IC50 is the concentration that inhibits the measured activity by half. In the case of `CCN(CC)CCCC(C)Nc1ccnc2cc(Cl)ccc12` (centres unmarked) [chloroquine, 7-chloro-4-(4-diethylamino-1-methylbutylamino)quinoline], the IC50 was 150 to 300 nM in experiment [1] and 27.8 ± 9 nM in experiment [2].
